In ChEMBL document CHEMBL4823252 (J Med Chem, 2021):

Tests used:
[1] = Toxicity in mouse xenografted with human MOLM-13 cells assessed as induction of cytoplasmic condensation at 40 mg/kg, po administered for 20 days by hematoxylin and eosin staining assay; type: organism-based; conditions: in vivo, 480 h, time 20 day
MV4-11 [2] = experiment: Induction of apoptosis in human MV4-11 cells assessed as late apoptotic cells at 100 nM incubated for 24 hrs by flow cytometry (reference value: 0.58%); type: functional
MOLM-13 = experiment: Antiproliferative activity against human sunitinib-resistant MOLM-13 cells at 12 nM incubated for 72 hrs by CCK8 assay relative to control; type: functional
[3] = AUC (0 to infinity) in Sprague-Dawley rat at 10 mg/kg, po; type: ADME, organism-based; parameters: route oral, time infinity, dose 10 mg/kg; conditions: in vivo
[4] = Toxicity in mouse xenografted with human MOLM-13 cells assessed as effect on spleen at 10 to 40 mg/kg, po administered for 20 days by hematoxylin and eosin staining assay; type: organism-based; conditions: in vivo, 480 h, dose 10-40 mg/kg, time 20 day
MV4-11 [5] = experiment: Induction of cell cycle arrest in human MV4-11 cells assessed as accumulation at sub-G1 phase at 10 nM incubated for 24 hrs by flow cytometry (reference value: […]%); type: functional
[6] = biological target: Receptor-type tyrosine-protein kinase FLT3 (Homo sapiens) (UniProt P36888); experiment: Inhibition of FLT3 in human MV4-11 cells assessed as suppression of autophosphorylation at tyr589/591 residue at 10 uM incubated for 2 hrs by Western blot analysis; type: cell-based; parameters: scale not given: the % may be the effect or the level left
[7] = Toxicity in mouse xenografted with human MV4-11 cells assessed as effect on spleen at 2.5 to 10 mg/kg, po administered for 16 days by hematoxylin and eosin staining assay; type: organism-based; conditions: in vivo, 384 h, dose 2.5-10 mg/kg, time 16 day
[8] = biological target: T1, Receptor-type tyrosine-protein kinase FLT3 (Homo sapiens, UniProt P36888); experiment: Inhibition of FLT3 (unknown origin) incubated for 30 mins in presence of ATP by mobility shift assay
T1 sequence (P36888 whole entry): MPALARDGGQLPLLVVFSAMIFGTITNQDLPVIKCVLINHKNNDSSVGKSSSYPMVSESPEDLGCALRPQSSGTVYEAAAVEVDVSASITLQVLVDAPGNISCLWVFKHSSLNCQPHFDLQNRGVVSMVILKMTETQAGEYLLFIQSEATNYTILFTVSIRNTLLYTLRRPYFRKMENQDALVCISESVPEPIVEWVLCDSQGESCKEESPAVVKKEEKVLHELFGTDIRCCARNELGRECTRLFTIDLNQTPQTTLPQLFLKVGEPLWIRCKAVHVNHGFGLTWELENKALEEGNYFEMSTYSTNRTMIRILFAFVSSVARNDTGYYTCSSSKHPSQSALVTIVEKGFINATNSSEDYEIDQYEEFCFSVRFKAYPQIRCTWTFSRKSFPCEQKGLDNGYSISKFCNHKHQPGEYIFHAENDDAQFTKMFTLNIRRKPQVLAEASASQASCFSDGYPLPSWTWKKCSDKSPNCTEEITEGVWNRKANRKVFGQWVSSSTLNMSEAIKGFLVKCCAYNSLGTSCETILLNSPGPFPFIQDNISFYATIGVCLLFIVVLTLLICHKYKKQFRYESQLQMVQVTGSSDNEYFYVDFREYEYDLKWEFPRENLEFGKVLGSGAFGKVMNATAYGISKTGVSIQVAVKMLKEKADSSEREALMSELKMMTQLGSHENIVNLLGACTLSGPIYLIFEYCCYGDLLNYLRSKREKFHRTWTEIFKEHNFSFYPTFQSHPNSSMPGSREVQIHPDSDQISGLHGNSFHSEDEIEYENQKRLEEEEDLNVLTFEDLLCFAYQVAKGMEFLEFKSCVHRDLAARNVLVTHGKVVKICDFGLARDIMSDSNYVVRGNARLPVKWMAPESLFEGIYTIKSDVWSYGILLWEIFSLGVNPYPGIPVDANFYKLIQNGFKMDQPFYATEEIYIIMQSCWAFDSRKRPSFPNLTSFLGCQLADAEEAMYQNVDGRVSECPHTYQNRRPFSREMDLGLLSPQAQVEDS

MV4-11 [9] = experiment: Antitumor activity against human MV4-11 cells xenografted in mouse assessed as tumor growth inhibition at 10 mg/kg, po administered for 20 days measured once every 2 days relative to control; type: functional; conditions: MV4-11, po, 480 h, time 20 day, read-out: TGI
MV4-11 [10] = experiment: Induction of cell cycle arrest in human MV4-11 cells assessed as accumulation at sub-G1 phase at 100 nM incubated for 24 hrs by flow cytometry (reference value: […]%); type: functional
MV4-11 [11] = experiment: Antitumor activity against human MV4-11 cells xenografted in po dosed mouse assessed as tumor growth inhibition administered for 20 days measured once every 2 days; type: functional, organism-based; conditions: time 20.0 day
[12] = biological target: Receptor-type tyrosine-protein kinase FLT3 (Homo sapiens, UniProt P36888, ITD); experiment: Inhibition of FLT3 ITD mutant (unknown origin) incubated for 30 mins in presence of ATP by mobility shift assay

SMILES	Activity [1]	Activity (MV4-11 [2]) [%]	Activity (MOLM-13) [%]	AUC(0-inf) [3] [ng·h/mL]	Activity [4]	Activity (MV4-11 [5]) [%]	Activity [6] [%]	Activity [7]	IC50 [8] [nM]	inhibition in vivo at 10 mg/kg (MV4-11 [9]) [%]	Activity (MV4-11 [10]) [%]	Activity (MV4-11 [11])	IC50 [12] [nM]
CCN(CC)CCNC(=O)c1c(C)[nH]c(/C=C2\C(=O)Nc3ccc(F)cc32)c1C [SUNITINIB]	Toxic												
Cc1c(NC(=O)CCN2CCCC2)c[nH]c1/C=C1\C(=O)Nc2ccc(F)cc21		8.73	-2.6	22700	Non-Toxic	28.68	100	Non-Toxic	1.8	93.4	30.54	Dose-Dependent Effect	0.8
